Experimental data: the supplement of paper PMC11208160

Test: recombinant UMI read abundance after kanamycin selection (control-corrected) (log10(CPM+1)); higher = more efficient recombination; extreme values may be limits of the assay; sequences stand for … in AGTGCAGAGAAAATCGGCCAGTTTTCTCTGCCTGCAGTCCGCATGCCGTGGGACCCCTTGGGTTCTAACCTGTTGCCTAGATTTATGCAGCGGACTGCCTTTCTCCCAAAGTGATAAACCGG…AGGTTGGTTTCACT; site = the 11-nt donor
In short: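 Each donor and donor-binding-loop pair was tracked by a 12-nt UMI on a plasmid carrying a promoterless kanamycin gene. With a second plasmid supplying a fixed target and T7-inducible IS621 bridge recombinase, the pool was plated in Escherichia coli on IPTG (0.07 mM) plus kanamycin or unselected. Sequencing of recombinant UMIs across the donor–target junction gave counts expressed as log10(CPM+1) after replicate averaging and control-derived scaling.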
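Further: IS621 bridge recombinase in Escherichia coli cells against a fixed T5 target plasmid.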

| Sequence | recombinant UMI read abundance (log10) |
| --- | --- |
| GAAAGTCCATGGACCGGTTTTCCCGGTAATCCGTATTTGGA (site GAAAGTCCTTC) | 0.0128 |
| GAACATACATGGACCGGTTTTCCCGGTAATCCGTATTTGGG (site GAACATACTCC) | 0.24 |
| GAACGTACATGGACCGGTTTTCCCGGTAATCCGTATTTGCT (site GAACGTACTAG) | 2.26 |
| GAAGATACATGGACCGGTTTTCCCGGTAATCCGTATTTGTT (site GAAGATACTAA) | 2.29 |
| GAAGATACATGGACCGGTTTTCCCGGTAATCCGTATTTGTT (site GAAGATCCTAA) | 0.00569 |
| GAAGATACATGGACCGGTTTTCCCGGTAATCCGTATTTGTT (site GAAGATGCTAA) | 0.602 |
| GAAGATACATGGACCGGTTTTCCCGGTAATCCGTATTTGTT (site GAAGATTCTAA) | 0 |
| GAAGATTCATGGACCGGTTTTCCCGGTAATCCGTATTTGTT (site AAAGATTCTAA) | 1.45 |
| GAAGATTCATGGACCGGTTTTCCCGGTAATCCGTATTTGTT (site CAAGATTCTAA) | 1.81 |
| GAAGATTCATGGACCGGTTTTCCCGGTAATCCGTATTTGTT (site GAAAATTCTAA) | 0.371 |
| GAAGATTCATGGACCGGTTTTCCCGGTAATCCGTATTTGTT (site GAACATTCTAA) | 0 |
| GAAGATTCATGGACCGGTTTTCCCGGTAATCCGTATTTGTT (site GAAGAATCTAA) | 1.3 |
| GAAGATTCATGGACCGGTTTTCCCGGTAATCCGTATTTGTT (site GAAGACTCTAA) | 1.24 |
| GAAGATTCATGGACCGGTTTTCCCGGTAATCCGTATTTGTT (site GAAGAGTCTAA) | 0.0122 |
| GAAGATTCATGGACCGGTTTTCCCGGTAATCCGTATTTGTT (site GAAGATACTAA) | 0.46 |
| GAAGATTCATGGACCGGTTTTCCCGGTAATCCGTATTTGTT (site GAAGATCCTAA) | 1.92 |
| GAAGATTCATGGACCGGTTTTCCCGGTAATCCGTATTTGTT (site GAAGATGCTAA) | 0.0075 |
| GAAGATTCATGGACCGGTTTTCCCGGTAATCCGTATTTGTT (site GAAGATTCTAA) | 2.86 |
| GAAGATTCATGGACCGGTTTTCCCGGTAATCCGTATTTGTT (site GAAGATTCTAC) | 0.242 |
| GAAGATTCATGGACCGGTTTTCCCGGTAATCCGTATTTGTT (site GAAGATTCTAG) | 0.838 |
| GAAGATTCATGGACCGGTTTTCCCGGTAATCCGTATTTGTT (site GAAGATTCTAT) | 1.5 |
| GAAGATTCATGGACCGGTTTTCCCGGTAATCCGTATTTGTT (site GAAGATTCTCA) | 0.868 |
| GAAGATTCATGGACCGGTTTTCCCGGTAATCCGTATTTGTT (site GAAGATTCTGA) | 0 |
| GAAGATTCATGGACCGGTTTTCCCGGTAATCCGTATTTGTT (site GAAGATTCTTA) | 1.2 |
| GAAGATTCATGGACCGGTTTTCCCGGTAATCCGTATTTGTT (site GAAGCTTCTAA) | 0.0109 |

| Sequence | recombinant UMI read abundance (log10) |
| --- | --- |
| GAAGATTCATGGACCGGTTTTCCCGGTAATCCGTATTTGTT (site GAAGGTTCTAA) | 0.0539 |
| GAAGATTCATGGACCGGTTTTCCCGGTAATCCGTATTTGTT (site GAAGTTTCTAA) | 0 |
| GAAGATTCATGGACCGGTTTTCCCGGTAATCCGTATTTGTT (site GAATATTCTAA) | 0 |
| GAAGATTCATGGACCGGTTTTCCCGGTAATCCGTATTTGTT (site GACGATTCTAA) | 0 |
| GAAGATTCATGGACCGGTTTTCCCGGTAATCCGTATTTGTT (site GAGGATTCTAA) | 0 |
| GAAGATTCATGGACCGGTTTTCCCGGTAATCCGTATTTGTT (site GATGATTCTAA) | 0.296 |
| GAAGATTCATGGACCGGTTTTCCCGGTAATCCGTATTTGTT (site GCAGATTCTAA) | 0.013 |
| GAAGATTCATGGACCGGTTTTCCCGGTAATCCGTATTTGTT (site GGAGATTCTAA) | 0.379 |
| GAAGATTCATGGACCGGTTTTCCCGGTAATCCGTATTTGTT (site GTAGATTCTAA) | 0.39 |
| GAAGATTCATGGACCGGTTTTCCCGGTAATCCGTATTTGTT (site TAAGATTCTAA) | 2.36 |
| GAAGCAACATGGACCGGTTTTCCCGGTAATCCGTATTTGCC (site GAAGCAACTGG) | 2.09 |
| GAAGCTTCATGGACCGGTTTTCCCGGTAATCCGTATTTGTT (site GAAGATTCTAA) | 0 |
| GAAGCTTCATGGACCGGTTTTCCCGGTAATCCGTATTTGTT (site GAAGCTTCTAA) | 1.74 |
| GAAGCTTCATGGACCGGTTTTCCCGGTAATCCGTATTTGTT (site GAAGGTTCTAA) | 0 |
| GAAGCTTCATGGACCGGTTTTCCCGGTAATCCGTATTTGTT (site GAAGTTTCTAA) | 0 |
| GAAGTATCATGGACCGGTTTTCCCGGTAATCCGTATTTGCA (site ACAGTATCTTG) | 1.54 |
| GAAGTATCATGGACCGGTTTTCCCGGTAATCCGTATTTGCA (site GAAGTATCTTG) | 2.6 |
| GAATATGCATGGACCGGTTTTCCCGGTAATCCGTATTTGAA (site GAATATGCTTT) | 2.09 |
| GAATCCGCATGGACCGGTTTTCCCGGTAATCCGTATTTGTC (site GAATCCGCTGA) | 2.15 |
| GAATCTACATGGACCGGTTTTCCCGGTAATCCGTATTTGCG (site GAATCTACTCG) | 1.04 |
| GAATGAGCATGGACCGGTTTTCCCGGTAATCCGTATTTGGA (site GAATGAGCTTC) | 1.28 |
| GAATGCCCATGGACCGGTTTTCCCGGTAATCCGTATTTGCA (site GAATGACCTTG) | 0 |
| GAATGCCCATGGACCGGTTTTCCCGGTAATCCGTATTTGCA (site GAATGCCCTTG) | 1.25 |
| GAATGCCCATGGACCGGTTTTCCCGGTAATCCGTATTTGCA (site GAATGGCCTTG) | 0 |
| GAATGCCCATGGACCGGTTTTCCCGGTAATCCGTATTTGCA (site GAATGTCCTTG) | 0 |

| Sequence | recombinant UMI read abundance (log10) |
| --- | --- |
| GAATGTCCATGGACCGGTTTTCCCGGTAATCCGTATTTGCA (site GAATGACCTTG) | 0 |
| GAATGTCCATGGACCGGTTTTCCCGGTAATCCGTATTTGCA (site GAATGCCCTTG) | 0 |
| GAATGTCCATGGACCGGTTTTCCCGGTAATCCGTATTTGCA (site GAATGGCCTTG) | 0 |
| GAATGTCCATGGACCGGTTTTCCCGGTAATCCGTATTTGCA (site GAATGTCCTTG) | 1.28 |
| GAATTCCCATGGACCGGTTTTCCCGGTAATCCGTATTTGCT (site AAATTCCCTAG) | 0 |
| GAATTCCCATGGACCGGTTTTCCCGGTAATCCGTATTTGCT (site CAATTCCCTAG) | 0.484 |
| GAATTCCCATGGACCGGTTTTCCCGGTAATCCGTATTTGCT (site GAATTCCCTAG) | 0.671 |
| GAATTCCCATGGACCGGTTTTCCCGGTAATCCGTATTTGCT (site TAATTCCCTAG) | 0.902 |
| GACAAACCATGGACCGGTTTTCCCGGTAATCCGTATTTGGC (site GACAAACCTAC) | 0 |
| GACAAACCATGGACCGGTTTTCCCGGTAATCCGTATTTGGC (site GACAAACCTCC) | 0 |
| GACAAACCATGGACCGGTTTTCCCGGTAATCCGTATTTGGC (site GACAAACCTGC) | 0 |
| GACAAACCATGGACCGGTTTTCCCGGTAATCCGTATTTGGC (site GACAAACCTTC) | 0 |
| GACAAAGCATGGACCGGTTTTCCCGGTAATCCGTATTTGGT (site GACAAAACTAC) | 0.00355 |
| GACAAAGCATGGACCGGTTTTCCCGGTAATCCGTATTTGGT (site GACAAACCTAC) | 0 |
| GACAAAGCATGGACCGGTTTTCCCGGTAATCCGTATTTGGT (site GACAAAGCTAC) | 1.13 |
| GACAAAGCATGGACCGGTTTTCCCGGTAATCCGTATTTGGT (site GACAAATCTAC) | 0 |
| GACAAGACATGGACCGGTTTTCCCGGTAATCCGTATTTGTG (site GACAAGACTCA) | 1.73 |
| GACAATACATGGACCGGTTTTCCCGGTAATCCGTATTTGGC (site GACAATACTGC) | 1.59 |
| GACACGCCATGGACCGGTTTTCCCGGTAATCCGTATTTGTA (site GACACGCCTTA) | 0.0256 |
| GACACGCCATGGACCGGTTTTCCCGGTAATCCGTATTTGTA (site GCCACGCCTTA) | 0.176 |
| GACACGCCATGGACCGGTTTTCCCGGTAATCCGTATTTGTA (site GGCACGCCTTA) | 0.00761 |
| GACACGCCATGGACCGGTTTTCCCGGTAATCCGTATTTGTA (site GTCACGCCTTA) | 0.0098 |
| GACACGCCATGGACCGGTTTTCCCGGTAATCCGTATTTGTG (site GACACGCCTCA) | 0.149 |
| GACAGACCATGGACCGGTTTTCCCGGTAATCCGTATTTGGT (site GACAAACCTAC) | 0 |
| GACAGACCATGGACCGGTTTTCCCGGTAATCCGTATTTGGT (site GACACACCTAC) | 0.00419 |
